In the supplement of paper PMC9938120:

Legend:
Assay in all cases: drug sensitivity score (DSS3, normalised partial AUC of % inhibition dose-response) (DSS (score)); higher = more sensitive (stronger inhibition of viability); extreme values may be limits of the assay
FMOC02_2 = patient-derived low-grade serous ovarian cancer cells; settings: 72 h; library: FO5A; assay format: 2D, 384-well, CellTiter-Glo
Method in brief: (§1)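 Patient-derived ovarian cancer cells (early passage, under 10) were dispensed onto 384-well flat clear-bottom plates pre-plated with compounds at five concentrations covering a 10,000-fold range. Plates were incubated 72 h at 37 °C, 5% CO2, and viability was read with CellTiter-Glo. Data were processed in Breeze. The drug sensitivity score (DSS3) is a partial area under the percent-inhibition dose-response curve, divided by the log of the upper asymptote; higher means more sensitive.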

FMOC22 = patient-derived mucinous ovarian cancer cells; settings: 72 h; library: FO5A; assay format: 2D, 384-well, CellTiter-Glo
Method in brief: as §1

FMOC03 = patient-derived mucinous ovarian cancer cells; settings: 72 h; library: FO5A; assay format: 2D, 384-well, CellTiter-Glo
Method in brief: as §1

FMOC14 = patient-derived high-grade serous ovarian cancer cells; settings: 72 h; library: FO5A; assay format: 2D, 384-well, CellTiter-Glo
Method in brief: as §1

FMOC24 = patient-derived high-grade serous ovarian cancer cells; settings: 72 h; library: FO5A; assay format: 2D, 384-well, CellTiter-Glo
Method in brief: as §1

FMOC09 = patient-derived high-grade serous ovarian cancer cells; settings: 72 h; library: FO5A; assay format: 2D, 384-well, CellTiter-Glo
Method in brief: as §1

FMOC02_3 = patient-derived low-grade serous ovarian cancer cells; settings: 72 h; library: FO5A; assay format: 2D, 384-well, CellTiter-Glo
Method in brief: as §1

FMOC06 = patient-derived mucinous ovarian cancer cells; settings: 72 h; library: FO5A; assay format: 2D, 384-well, CellTiter-Glo
Method in brief: as §1

FMOC25_2 = patient-derived low-grade serous ovarian cancer cells; settings: 72 h; library: FO5A; assay format: 2D, 384-well, CellTiter-Glo
Method in brief: as §1

FMOC25_1 = patient-derived low-grade serous ovarian cancer cells; settings: 72 h; library: FO4B; assay format: 2D, 384-well, CellTiter-Glo
Method in brief: as §1

SMILES	drug sensitivity score (FMOC02_2)	drug sensitivity score (FMOC22)	drug sensitivity score (FMOC03)	drug sensitivity score (FMOC14)	drug sensitivity score (FMOC24)	drug sensitivity score (FMOC09)	drug sensitivity score (FMOC02_3)	drug sensitivity score (FMOC06)	drug sensitivity score (FMOC25_2)	drug sensitivity score (FMOC25_1)
COc1cccc2c1C(=O)c1c(O)c3c(c(O)c1C2=O)C[C@@](O)(C(C)=O)C[C@@H]3O[C@H]1C[C@H](N)[C@H](O)[C@H](C)O1 [Daunorubicin]	6.7	4.9	4.6	5.8	7.6	6.4	9.7	6.4	7.7	10.1
CCc1cnn2c(NCc3ccc[n+]([O-])c3)cc(N3CCCC[C@H]3CCO)nc12 [Dinaciclib]	22.1	13.1	16.4	18.5	18.8	10.3	25	20.2	28.3	17.6
CC(=O)O[C@@]12CO[C@@H]1C[C@H](O)[C@@]1(C)C(=O)[C@H](O)C3=C(C)[C@@H](OC(=O)[C@H](O)[C@@H](NC(=O)OC(C)(C)C)c4ccccc4)C[C@@](O)([C@@H](OC(=O)c4ccccc4)[C@H]21)C3(C)C [Docetaxel]	10.8	12.4	11.7	0	0.6	13.9	15.5	9.1	15.5	12.1
COc1cccc2c1C(=O)c1c(O)c3c(c(O)c1C2=O)C[C@@](O)(C(=O)CO)C[C@@H]3O[C@H]1C[C@H](N)[C@H](O)[C@H](C)O1 [Doxorubicin]	2.9	4.5	2.6	3.6	5.65	6.5	7.2	4.3	8	7.7
Cc1cc(Nc2cc(N3CCN(C)CC3)nc(/C=C/c3ccccc3)n2)n[nH]1 [ENMD-2076]	11.5	4.1	6.2	5.2	4.95	8.6	13.7	6.7	10.5	6.1
Nc1ccccc1NC(=O)c1ccc(CNC(=O)OCc2cccnc2)cc1 [Entinostat]	8.6	5	8.2	8.6	8.4	1.6	7.5	7.6	3.7	4.3
C#Cc1cccc(Nc2ncnc3cc(OCCOC)c(OCCOC)cc23)c1 [Erlotinib]	15.7	1.8	14.7	3.7	3.6	11	15.1	3	14.1	11.7
COc1cc([C@@H]2c3cc4c(cc3[C@@H](O[C@@H]3O[C@@H]5CO[C@@H](C)O[C@H]5[C@H](O)[C@H]3O)[C@H]3COC(=O)[C@H]23)OCO4)cc(OC)c1O [Etoposide]	1.4	6.1	1.7	1.7	1.9	5.6	2.7	3.5	2.9	2.8
CO[C@H]1C[C@@H]2CC[C@@H](C)[C@@](O)(O2)C(=O)C(=O)N2CCCC[C@H]2C(=O)O[C@H]([C@H](C)C[C@@H]2CC[C@@H](OCCO)[C@H](OC)C2)CC(=O)[C@H](C)/C=C(\C)[C@@H](O)[C@@H](OC)C(=O)[C@H](C)C[C@H](C)/C=C/C=C/C=C/1C [Everolimus]	10	6.7	2.8	1.7	7.5	3.9	10.2	5.8	6.7	9.2
CCn1c(=O)c(-c2ccc(Cl)cc2Cl)cc2cnc(Nc3ccc(N4CCNCC4)c(F)c3)nc21 [FRAX486]	12.2	0.1	2.4	0.2	9.45	3.7	14.7	1.7	11.9	3.2
Cc1cnc(Nc2ccc(OCCN3CCCC3)cc2)nc1Nc1cccc(S(=O)(=O)NC(C)(C)C)c1 [Fedratinib]	10.4	2.3	3.2	1.7	6.9	5.1	12.2	2.8	11.3	5.7
CON(C)C(=O)N1N=C(c2cc(F)ccc2F)S[C@@]1(CCCN)c1ccccc1 [Filanesib]	6.8	6.3	4.4	0	0	7.5	12.7	0	12	6.1
CCCCCCCCc1ccc(CCC(N)(CO)CO)cc1 [Fingolimod]	7.7	5.3	5.1	7.3	10.8	6	6.1	7	5.7	6.2
O=c1[nH]c(=O)n([C@H]2C[C@H](O)[C@@H](CO)O2)cc1F [Floxuridine]	2.6	9.3	4.1	0.8	0	2.2	2.3	0.8	3.8	0.5
O=C(NOCCO)c1ccc2cncn2c1Nc1ccc(I)cc1F [GDC-0623]	7.3	7.2	1.3	0.1	1.35	4	5.3	6.1	11.2	9.6
CCOC(=O)CCNc1cc(N2CCc3ccccc3CC2)nc(-c2ccccn2)n1 [GSK-J4]	0	4.3	3.2	1.3	3.9	0	3.2	4	7.5	6.7
Cc1cc(Nc2cc(CN3CCOCC3)c3nc(C)c(Cc4ccc(Cl)cc4F)n3n2)n[nH]1 [Gandotinib]	16.3	1.8	4.7	6.1	7.6	5.1	10.1	8.9	18.8	3.7

SMILES	drug sensitivity score (FMOC02_2)	drug sensitivity score (FMOC22)	drug sensitivity score (FMOC03)	drug sensitivity score (FMOC14)	drug sensitivity score (FMOC24)	drug sensitivity score (FMOC09)	drug sensitivity score (FMOC02_3)	drug sensitivity score (FMOC06)	drug sensitivity score (FMOC25_2)	drug sensitivity score (FMOC25_1)
CC(C)c1cc(-c2n[nH]c(=O)n2-c2ccc3c(ccn3C)c2)c(O)cc1O [Ganetespib]	16.2	14.3	11.3	10.9	8.9	12.3	19.7	3.3	17.5	11.6
CN(C)C1CCN(C(=O)c2ccc(NC(=O)Nc3ccc(-c4nc(N5CCOCC5)nc(N5CCOCC5)n4)cc3)cc2)CC1 [Gedatolisib]	8.2	10.7	8.2	10.2	9.05	11.3	13.3	12.4	19.9	16.3
COc1cc2ncnc(Nc3ccc(F)c(Cl)c3)c2cc1OCCCN1CCOCC1 [Gefitinib]	17.3	1.5	16.2	6.6	5.8	10.9	15.1	5.4	16.5	9.8
Nc1ccn([C@@H]2O[C@H](CO)[C@@H](O)C2(F)F)c(=O)n1 [Gemcitabine]	16.3	12.7	2.9	0	6	10.5	17.3	5.4	14.6	7.6
CCN(CC)Cc1ccc2cc(COC(=O)Nc3ccc(C(=O)NO)cc3)ccc2c1 [Givinostat]	7.1	4.7	6.1	4.4	5.45	1.5	5.9	5.2	4	5.2
COc1cc2c(cc1-c1c(C)noc1C)ncc1[nH]c(=O)n([C@H](C)c3ccccn3)c12 [I-BET151]	10.1	5.1	6.6	1.3	7.05	4.5	11.3	4.7	7.8	4.5
C=CC(=O)N1CCC[C@@H](n2nc(-c3ccc(Oc4ccccc4)cc3)c3c(N)ncnc32)C1 [Ibrutinib]	10.2	0	8.8	2.7	0.5	6	7.3	0.3	6.5	5.6
C#Cc1cccc(Nc2ncnc3cc4c(cc23)OCCOCCOCCO4)c1 [Icotinib]	11.2	1.8	9.7	2.1	1	8	10.7	3.4	7.1	9
CC(=O)[C@]1(O)Cc2c(O)c3c(c(O)c2[C@@H](O[C@H]2C[C@H](N)[C@H](O)[C@H](C)O2)C1)C(=O)c1ccccc1C3=O [Idarubicin]	7.8	7	4.8	6.1	9.4	6.3	9.1	5.8	9.1	9.2
COc1cc(C(=O)O)ccc1NC(=O)[C@@H]1N[C@@H](CC(C)(C)C)[C@](C#N)(c2ccc(Cl)cc2F)[C@H]1c1cccc(Cl)c1F [Idasanutlin]	18.5	3.6	2.6	2.5	1.9	2	22.7	5.3	16.6	10.5
O=C(Nc1ccncc1)C(=O)c1cn(Cc2ccc(Cl)cc2)c2ccccc12 [Indibulin]	10.9	3.4	4.3	0	6	4.7	9.6	1.3	9.2	5.5
CC(C)NC[C@@H](C(=O)N1CCN(c2ncnc3c2[C@H](C)C[C@H]3O)CC1)c1ccc(Cl)cc1 [Ipatasertib]	7.8	2.1	1	2.8	3	0.1	14.3	4	7.4	7
NC(=O)N1CCC(CC(=O)N2CCC([C@H]3c4ncc(Br)cc4CCc4cc(Cl)cc(Br)c43)CC2)CC1 [Lonafarnib]	6.6	15.1	9.8	10.3	7.5	7	0	12.1	9.8	2.7
CCNC(=O)c1noc(-c2cc(C(C)C)c(O)cc2O)c1-c1ccc(CN2CCOCC2)cc1 [Luminespib]	19.8	13.2	10.8	13	9.4	16.9	23	3.2	23.6	10.9
O=C(Nc1cccc(NC(=O)c2cccc(O)c2O)c1)c1cccc(O)c1O [MST-312]	2.7	10.1	6.2	8.2	5.55	9.7	7.7	5.7	2.4	4.5
CCN(CC)CCCC(C)Nc1c2ccc(Cl)cc2nc2ccc(OC)cc12 (stereo not given) [Mepacrine]	19.4	9.2	9.5	9.8	20.2	10.3	19.4	10	10.9	10.3
S=c1[nH]cnc2nc[nH]c12 [Mercaptopurine]	0.2	0	0	0	0.85	0	0	0.3	1.8	1.6
